Results on one molecule are retold here after BindingDB's records for doi:10.1016/j.bmcl.2008.02.001 (Cephalon, 2008).

SMILES strings stand for the structures.

This assay is described as follows: Inhibition of VEGF-stimulated VEGFR2 autophosphorylation in HUVEC cells […] relative to control.

Regarding `CO/N=C(\C)c1ccc2c(c1)c1c3c(c4c(c1n2CC(C)C)CCc1nn(C)cc1-4)C(=O)NC3` [7-[(1E)-1-(methoxyimino)ethyl]-19-methyl-3-(2-methylpropyl)-3,13,19,20-tetraazahexacyclo[14.7.0.0^{2,10}.0^{4,9}.0^{11,15}.0^{17,21}]tricosa-1(16),2(10),4,6,8,11(15),17,20-octaen-14-one], the IC50 amounted to 4 nM.
